Laboratory results as given in patent US8143403B2 (Bristol-Myers Squibb Company, priority 2008, dated 2012).

Molecular target: T1, Human CGRP Receptor (Homo sapiens, UniProt O60894+Q16602)
T1 construct: Crude membranes were prepared from SK-N-MC cells expressing CGRP receptors; endogenous in cells; host or cells: SK-N-MC cells (crude membranes)
Assay: Radioligand binding assay, [125I]-CGRP displacement on SK-N-MC membranes
Details: displacement of [125I]-CGRP (18 pM final), 2 h room temperature
Method: Tissue Culture. SK-N-MC cells were grown at 37° C. in 5% CO2 as a monolayer in medium consisting of MEM with Earle's salts and L-glutamine (Invitrogen) supplemented with 10% fetal bovine serum (Invitrogen).
Membrane Preparation. Crude membranes were prepared from SK-N-MC cells expressing CGRP receptors. The cells were rinsed twice with phosphate-buffered saline (155 mM NaCl, 3.3 mM Na2HPO4, 1.1 mM KH2PO4, pH 7.4), and incubated for 5-10 min. at 4° C. in hypotonic lysis buffer consisting of 10 mM Tris (pH 7.4) and 5 mM EDTA. The cells were transferred from plates to polypropylene tubes (16×100 mm) and homogenized using a polytron. Homogenates were centrifuged at 32,000×g for 30 min. The pellets were resuspended in cold hypotonic lysis buffer with 0.1% mammalian protease inhibitor cocktail (Sigma) and assayed for protein concentration. The SK-N-MC homogenate was aliquoted and stored at −80° C. Radioligand Binding Assay. The compounds of invention were solubilized and carried through serial dilutions using 100% DMSO. Aliquots from the compound serial dilutions were further diluted 25 fold into assay buffer (50 mM Tris-Cl pH 7.5, 5 mM MgCl2, 0.005% Triton X-100) and transferred (volume 50 μl) into 96 well assay plates. [^125I]-CGRP (GE Healthcare or Perkin-Elmer) was diluted to 72 pM in assay buffer and a volume of 50 μl was added to each well. SK-N-MC membranes were thawed, diluted in assay buffer with fresh 0.1% mammalian protease inhibitor cocktail (Sigma), and re-homogenized. SK-N-MC homogenate (7 μg/well) was added in a volume of 100 μl. The assay plates were then incubated at room temperature for 2 h. Assays were stopped by addition of excess cold wash buffer (50 mM Tris-Cl pH 7.5, 0.1% BSA) immediately followed by filtration over glass fiber filters (Whatman GF/B) previously soaked in 0.5% PEI. Non-specific binding was defined with 1 μM beta-CGRP (Bachem). Protein bound radioactivity was determined using a gamma or scintillation counter. The resulting data was analyzed using a four parameter competitive binding equation (XLfit v2.0) and the IC50 was defined as the concentration of a compound of invention required to displace 50% of radioligand binding. Final assay concentration of [^125I]-CGRP was 18 pM. […] All compounds of invention were evaluated in at least two separate experiments.

T1 sequence (Q16602 23-461): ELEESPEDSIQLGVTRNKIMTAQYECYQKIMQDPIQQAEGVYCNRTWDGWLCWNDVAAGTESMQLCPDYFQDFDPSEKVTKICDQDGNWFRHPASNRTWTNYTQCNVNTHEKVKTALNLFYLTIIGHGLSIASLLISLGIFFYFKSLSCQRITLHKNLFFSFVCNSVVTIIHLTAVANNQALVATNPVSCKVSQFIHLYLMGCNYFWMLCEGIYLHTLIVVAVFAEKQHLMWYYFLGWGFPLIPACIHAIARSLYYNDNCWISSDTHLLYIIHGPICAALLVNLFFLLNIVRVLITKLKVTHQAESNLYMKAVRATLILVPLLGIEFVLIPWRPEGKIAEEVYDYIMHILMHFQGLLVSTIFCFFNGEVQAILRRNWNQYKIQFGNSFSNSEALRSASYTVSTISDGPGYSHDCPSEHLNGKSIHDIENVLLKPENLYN
T1 sequence (O60894 27-148): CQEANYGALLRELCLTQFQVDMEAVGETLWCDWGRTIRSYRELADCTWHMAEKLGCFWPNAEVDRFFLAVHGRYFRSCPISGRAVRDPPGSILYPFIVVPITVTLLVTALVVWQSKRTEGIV

Compound	IC50 [nM]
O=C(O[C@@H]1CC[C@@H](c2cc(F)ccc2F)Cc2cccnc21)N1CCC(n2c(=O)[nH]c3ncccc32)CC1 (racemic) [Example 11, (6,9-trans)-6-(2,5-Difluorophenyl)-6,7,8,9-tetrahydro-5H-cyclohepta[b]pyridin-9-yl 4-(2-oxo-2,3-dihydro-1H-imidazo[4,5-b]pyridin-1-yl)piperidine-1-carboxylate]	4.14
O=C(O[C@@H]1CC[C@@H](c2cccc(F)c2F)Cc2cccnc21)N1CCC(n2c(=O)[nH]c3ncccc32)CC1 (relative stereo) [Example 2]	0.23
O=C(O[C@@H]1CC[C@@H](c2cccc(F)c2F)Cc2cccnc21)N1CCC(N2CCc3ccccc3NC2=O)CC1 (relative stereo) [Example 3, (6,9-anti)-6-(2,3-difluorophenyl)-6,7,8,9-tetrahydro-5H-cyclohepta[b]pyridin-9-yl 4-(2-oxo-4,5-dihydro-1H-benzo[d][1,3]diazepin-3(2H)-yl)piperidine-1-carboxylate]	1.25
N#Cc1ccc2c(n1)[C@H](OC(=O)N1CCC(n3c(=O)[nH]c4ncccc43)CC1)CC[C@@H](c1cccc(F)c1F)C2 (relative stereo) [Example 4, (6,9-trans)-2-cyano-6-(2,3-difluorophenyl)-6,7,8,9-tetrahydro-5H-cyclohepta[b]pyridin-9-yl 4-(2-oxo-2,3-dihydro-1H-imidazo[4,5-b]pyridin-1-yl)piperidine-1-carboxylate]	0.44
O=C(C[C@@H]1CC[C@H](c2cccc(F)c2F)Cc2cccnc21)N1CCC(n2c(=O)[nH]c3ncccc32)CC1 (relative stereo) [Example 5, 1-(1-(2-((6,9-Cis)-6-(2,3-difluorophenyl)-6,7,8,9-tetrahydro-5H-cyclohepta[b]pyridin-9-yl)acetyl)piperidin-4-yl)-1H-imidazo[4,5-b]pyridin-2(3H)-one]	4.04
O=C(O[C@@H]1CC[C@@H](c2ccccc2)Cc2cccnc21)N1CCC(n2c(=O)[nH]c3ncccc32)CC1 (relative stereo) [Example 10, (6,9-Trans)-6-Phenyl-6,7,8,9-tetrahydro-5H-cyclohepta[b]pyridin-9-yl 4-(2-oxo-2,3-dihydro-1H-imidazo[4,5-b]pyridin-1-yl)piperidine-1-carboxylate]	8.89
O=C(O[C@@H]1CC[C@@H](c2ccc(F)c(F)c2)Cc2cccnc21)N1CCC(n2c(=O)[nH]c3ncccc32)CC1 (relative stereo) [Example 12, (6,9-Trans)-6-(3,4-Difluorophenyl)-6,7,8,9-tetrahydro-5H-cyclohepta[b]pyridin-9-yl 4-(2-oxo-2,3-dihydro-1H-imidazo[4,5-b]pyridin-1-yl)piperidine-1-carboxylate]	7.41
O=C(C[C@@H]1CC[C@@H](c2cccc(F)c2F)Cc2cccnc21)N1CCC(n2c(=O)[nH]c3ncccc32)CC1 (single isomer, unassigned) [Example 6]	0.89
O=C(C[C@H]1CC[C@H](c2cccc(F)c2F)Cc2cccnc21)N1CCC(n2c(=O)[nH]c3ncccc32)CC1 (single isomer, unassigned) [Example 7]	> 100
O=C(N[C@@H]1CC[C@@H](c2cccc(F)c2F)Cc2cccnc21)N1CCC(n2c(=O)[nH]c3ncccc32)CC1 (single isomer, unassigned) [Example 8]	1.6
O=C1CCC(c2cccc(F)c2F)CCC1OC(=O)N1CCC(n2c(=O)[nH]c3ncccc32)CC1 (centres unmarked) [Example 1, 5-(2,3-difluorophenyl)-2-oxocycloheptyl 4-(2-oxo-2,3-dihydro-1H-imidazo[4,5-b]pyridin-1-yl)piperidine-1-carboxylate]	2.86
O=C(N[C@H]1CC[C@H](c2cccc(F)c2F)Cc2cccnc21)N1CCC(n2c(=O)[nH]c3ncccc32)CC1 [Example 9, N-((6S,9S)-6-(2,3-difluorophenyl)-6,7,8,9-tetrahydro-5H-cyclohepta[b]pyridin-9-yl)-4-(2-oxo-2,3-dihydro-1H-imidazo[4,5-b]pyridin-1-yl)piperidine-1-carboxamide]	> 1000
Nc1cnc2c(c1)C[C@H](c1cccc(F)c1F)CC[C@H]2NC(=O)N1CCC(n2c(=O)[nH]c3ncccc32)CC1 [Example 14, N-((6R,9R)-3-amino-6-(2,3-difluorophenyl)-6,7,8,9-tetrahydro-5H-cyclohepta[b]pyridin-9-yl)-4-(2-oxo-2,3-dihydro-1H-imidazo[4,5-b]pyridin-1-yl)piperidine-1-carboxamide]	0.25
CN(C)c1cnc2c(c1)C[C@H](c1cccc(F)c1F)CC[C@H]2OC(=O)N1CCC(n2c(=O)[nH]c3ncccc32)CC1 [Example 15, (6R,9R)-6-(2,3-difluorophenyl)-3-(dimethylamino)-6,7,8,9-tetrahydro-5H-cyclohepta[b]pyridin-9-yl 4-(2-oxo-2,3-dihydro-1H-imidazo[4,5-b]pyridin-1-yl)piperidine-1-carboxylate]	0.98
CC(C)(C)Nc1ccc2c(n1)[C@H](OC(=O)N1CCC(n3c(=O)[nH]c4ncccc43)CC1)CC[C@@H](c1cccc(F)c1F)C2 [Example 16, (6R,9R)-2-(tert-Butylamino)-6-(2,3-difluorophenyl)-6,7,8,9-tetrahydro-5H-cyclohepta[b]pyridin-9-yl 4-(2-oxo-2,3-dihydro-1H-imidazo[4,5-b]pyridin-1-yl)piperidine-1-carboxylate]	6.96
Nc1ccc2c(n1)[C@H](OC(=O)N1CCC(n3c(=O)[nH]c4ncccc43)CC1)CC[C@@H](c1cccc(F)c1F)C2 [Example 17, (6R,9R)-2-Amino-6-(2,3-difluorophenyl)-6,7,8,9-tetrahydro-5H-cyclohepta[b]pyridin-9-yl 4-(2-oxo-2,3-dihydro-1H-imidazo[4,5-b]pyridin-1-yl)piperidine-1-carboxylate]	0.8
CN(C)c1ccc2c(n1)[C@H](OC(=O)N1CCC(n3c(=O)[nH]c4ncccc43)CC1)CC[C@@H](c1cccc(F)c1F)C2 [Example 18, (6R,9R)-6-(2,3-difluorophenyl)-2-(dimethylamino)-6,7,8,9-tetrahydro-5H-cyclohepta[b]pyridin-9-yl 4-(2-oxo-2,3-dihydro-1H-imidazo[4,5-b]pyridin-1-yl)piperidine-1-carboxylate]	0.78
O=C(O[C@@H]1CC[C@@H](c2cccc(F)c2F)Cc2ccc(Cl)nc21)N1CCC(n2c(=O)[nH]c3ncccc32)CC1 [Example 19, (6R,9R)-2-Chloro-6-(2,3-difluorophenyl)-6,7,8,9-tetrahydro-5H-cyclohepta[b]pyridin-9-yl 4-(2-oxo-2,3-dihydro-1H-imidazo[4,5-b]pyridin-1-yl)piperidine-1-carboxylate]	0.76
O=C(O[C@@H]1CC[C@@H](c2cccc(F)c2F)Cc2cccnc21)N1CCC(n2c(=O)[nH]c3ncccc32)CC1 [Example 21]	0.12
(6,9-Trans)-6-(2,3-difluorophenyl)-6,7,8,9-tetrahydro-5H-cyclohepta[b]pyridin-9-yl 2-oxo-1,2-dihydrospiro[benzo[d][1,3]oxazine-4,4′-piperidine]-1′-carboxylate [Example 13]	1.55
